In EP0140492B1 (WARNER-LAMBERT COMPANY, priority 1983, dated 1985):
Where two headings read alike, the source gives them in different places. Marks after values point to notes of the source that are not given here.

Assay: Plasma levels of isoxicam and bioavailability parameters after a single oral dose to beagle dogs
Format: in vivo
Details: for Plasma levels of isoxicam / Plasma levels of isoxicam, Mean: 100 mg/dog oral (isoxicam equivalents); for AUC(0-inf) / half-life / Cmax / Tmax: dog, in vivo, po, 100 mg; for Tmax: read-out: Tmax; for Plasma levels of isoxicam, Mean: mean of dogs
Protocol: The range for the individual animals was 51.4 to 63.0 µg/ml with three animals having a peak time of two hours and the final animal at eight hours. These plasma levels were considerably higher when compared to micronized isoxicam. […] Peak plasma concentrations for individual animals ranged from […] between three and six hours postdose.
Areas under the plasma concentrations versus time curve (AUC^0-∞) were calculated using the trapezoidal rule and extrapolated to infinity with the appropriate elimination rate constants.

[1] = Mean of four dogs, oral 100 mg (free acid equivalents)
[2] = dog 1930, oral 100 mg (free acid equivalents)
[3] = dog 1942, oral 100 mg (free acid equivalents)
[4] = dog 117668, oral 100 mg (free acid equivalents)
[5] = dog 120064, oral 100 mg (free acid equivalents)

Cc1cc(NC(=O)C2=C(O)c3ccccc3S(=O)(=O)N2C)no1 [arginine isoxicamate, L-arginine isoxicamate]
Plasma levels of isoxicam (dog 1930, time 0.5 h postdose): 29.6 µg/mL
Plasma levels of isoxicam (dog 1930, time 1.0 h postdose): 43.4 µg/mL
Plasma levels of isoxicam (dog 1930, time 2.0 h postdose): 51.4 µg/mL
Plasma levels of isoxicam (dog 1930, time 3.0 h postdose): 47.5 µg/mL
Plasma levels of isoxicam (dog 1930, time 4.0 h postdose): 48.9 µg/mL
Plasma levels of isoxicam (dog 1930, time 6.0 h postdose): 48.3 µg/mL
Plasma levels of isoxicam (dog 1930, time 8.0 h postdose): 42.6 µg/mL
Plasma levels of isoxicam (dog 1930, time 12.0 h postdose): 37.8 µg/mL
Plasma levels of isoxicam (dog 1930, time 24.0 h postdose): 32.8 µg/mL
Plasma levels of isoxicam (dog 1930, time 32.0 h postdose): 25.2 µg/mL
Plasma levels of isoxicam (dog 1930, time 48.0 h postdose): 25.0 µg/mL
Plasma levels of isoxicam (dog 1930, time 72.0 h postdose): 14.6 µg/mL
Plasma levels of isoxicam (dog 1930, time 96.0 h postdose): 10.2 µg/mL
Plasma levels of isoxicam (dog 1930, time 192.0 h postdose): 1.56 µg/mL
Plasma levels of isoxicam (dog 1930, time 240.0 h postdose): 0.89 µg/mL
Plasma levels of isoxicam (dog 1942, time 0.5 h postdose): 7.99 µg/mL
Plasma levels of isoxicam (dog 1942, time 1.0 h postdose): 28.1 µg/mL
Plasma levels of isoxicam (dog 1942, time 2.0 h postdose): 58.6 µg/mL
Plasma levels of isoxicam (dog 1942, time 3.0 h postdose): 51.7 µg/mL
Plasma levels of isoxicam (dog 1942, time 4.0 h postdose): 53.9 µg/mL
Plasma levels of isoxicam (dog 1942, time 6.0 h postdose): 50.5 µg/mL
Plasma levels of isoxicam (dog 1942, time 8.0 h postdose): 42.2 µg/mL
Plasma levels of isoxicam (dog 1942, time 12.0 h postdose): 39.4 µg/mL
Plasma levels of isoxicam (dog 1942, time 24.0 h postdose): 35.6 µg/mL
Plasma levels of isoxicam (dog 1942, time 32.0 h postdose): 25.7 µg/mL
Plasma levels of isoxicam (dog 1942, time 48.0 h postdose): 25.5 µg/mL
Plasma levels of isoxicam (dog 1942, time 72.0 h postdose): 17.1 µg/mL
Plasma levels of isoxicam (dog 1942, time 96.0 h postdose): 8.96 µg/mL
Plasma levels of isoxicam (dog 1942, time 153.5 h postdose): 2.34 µg/mL
Plasma levels of isoxicam (dog 1942, time 192.0 h postdose): 1.28 µg/mL
Plasma levels of isoxicam (dog 1942, time 240.0 h postdose): 0.60 µg/mL
Plasma levels of isoxicam (dog 117668, row 192.0, actual time=193 hours): 0.85* µg/ml
Plasma levels of isoxicam (dog 117668, time 0.5 h postdose): 22.8 µg/mL
Plasma levels of isoxicam (dog 117668, time 1.0 h postdose): 42.6 µg/mL
Plasma levels of isoxicam (dog 117668, time 3.0 h postdose): 55.1 µg/mL
Plasma levels of isoxicam (dog 117668, time 4.0 h postdose): 59.3 µg/mL
Plasma levels of isoxicam (dog 117668, time 6.0 h postdose): 50.2 µg/mL
Plasma levels of isoxicam (dog 117668, time 8.0 h postdose): 63.0 µg/mL
Plasma levels of isoxicam (dog 117668, time 24.0 h postdose): 30.5 µg/mL
Plasma levels of isoxicam (dog 117668, time 32.0 h postdose): 29.6 µg/mL
Plasma levels of isoxicam (dog 117668, time 48.0 h postdose): 18.6 µg/mL
Plasma levels of isoxicam (dog 117668, time 72.0 h postdose): 10.7 µg/mL
Plasma levels of isoxicam (dog 117668, time 96.0 h postdose): 5.10 µg/mL
Plasma levels of isoxicam (dog 117668, time 153.5 h postdose): 1.27 µg/mL
Plasma levels of isoxicam (dog 117668, time 240.0 h postdose): 0.51 µg/mL
Plasma levels of isoxicam (dog 120064, row 192.0, actual time=193 hours): 2.17* µg/ml
Plasma levels of isoxicam (dog 120064, time 0.5 h postdose): 1.11 µg/mL
Plasma levels of isoxicam (dog 120064, time 1.0 h postdose): 15.5 µg/mL
Plasma levels of isoxicam (dog 120064, time 2.0 h postdose): 51.8 µg/mL
Plasma levels of isoxicam (dog 120064, time 3.0 h postdose): 46.3 µg/mL
Plasma levels of isoxicam (dog 120064, time 4.0 h postdose): 50.5 µg/mL
Plasma levels of isoxicam (dog 120064, time 6.0 h postdose): 49.6 µg/mL
Plasma levels of isoxicam (dog 120064, time 8.0 h postdose): 42.0 µg/mL
Plasma levels of isoxicam (dog 120064, time 24.0 h postdose): 31.3 µg/mL
Plasma levels of isoxicam (dog 120064, time 32.0 h postdose): 34.8 µg/mL
Plasma levels of isoxicam (dog 120064, time 48.0 h postdose): 21.5 µg/mL
Plasma levels of isoxicam (dog 120064, time 72.0 h postdose): 17.6 µg/mL
Plasma levels of isoxicam (dog 120064, time 96.0 h postdose): 9.39 µg/mL
Plasma levels of isoxicam (dog 120064, time 153.5 h postdose): 3.52 µg/mL
Plasma levels of isoxicam (dog 120064, time 240.0 h postdose): 1.26 µg/mL
AUC(0-inf) [1]: 2840 µg·h/mL
half-life (Mean of four dogs, oral 100 mg (free acid equivalents), elimination half-life, read-out: Half-life (converted)): 2170 min
Cmax (Mean of four dogs, oral 100 mg (free acid equivalents), read-out: Cmax): 55.3 µg/mL
Tmax [1]: 3 h
AUC(0-inf) [2]: 2910 µg·h/mL
half-life (dog 1930, oral 100 mg (free acid equivalents), elimination half-life, read-out: Half-life (converted)): 2330 min
Cmax (dog 1930, oral 100 mg (free acid equivalents), read-out: Cmax): 51.4 µg/mL
Tmax [2]: 2 h
AUC(0-inf) [3]: 2920 µg·h/mL
half-life (dog 1942, oral 100 mg (free acid equivalents), elimination half-life, read-out: Half-life (converted)): 2060 min
Cmax (dog 1942, oral 100 mg (free acid equivalents), read-out: Cmax): 58.6 µg/mL
Tmax [3]: 2 h
AUC(0-inf) [4]: 2590 µg·h/mL
half-life (dog 117668, oral 100 mg (free acid equivalents), elimination half-life, read-out: Half-life (converted)): 1620 min
Cmax (dog 117668, oral 100 mg (free acid equivalents), read-out: Cmax): 59.3 µg/mL
Tmax [4]: 6 h
AUC(0-inf) [5]: 2950 µg·h/mL
half-life (dog 120064, oral 100 mg (free acid equivalents), elimination half-life, read-out: Half-life (converted)): 2690 min
Cmax (dog 120064, oral 100 mg (free acid equivalents), read-out: Cmax): 51.8 µg/mL
Tmax [5]: 2 h
Cmax (four dogs, 100 mg oral, read-out: Mean Cmax): 56.2 ± 5.6 µg/mL
half-life (four dogs, 100 mg oral, read-out: Mean half-lives (elimination, linear regression of semilogarithmic data) (converted)): 2170 ± 450 min
mean AUC^0-∞ (four dogs, 100 mg oral, trapezoidal rule extrapolated to infinity): 2840 ± 170 µg·h/mL
Plasma levels of isoxicam, Mean (time 0.5 h postdose): 15.4 µg/mL
Plasma levels of isoxicam, Mean (time 1.0 h postdose): 32.4 µg/mL
Plasma levels of isoxicam, Mean (time 2.0 h postdose): 53.9 µg/mL
Plasma levels of isoxicam, Mean (time 3.0 h postdose): 50.2 µg/mL
Plasma levels of isoxicam, Mean (time 4.0 h postdose): 53.2 µg/mL
Plasma levels of isoxicam, Mean (time 6.0 h postdose): 49.6 µg/mL
Plasma levels of isoxicam, Mean (time 8.0 h postdose): 47.4 µg/mL
Plasma levels of isoxicam, Mean (time 12.0 h postdose): 38.6 µg/mL
Plasma levels of isoxicam, Mean (time 24.0 h postdose): 32.6 µg/mL
Plasma levels of isoxicam, Mean (time 32.0 h postdose): 28.8 µg/mL
Plasma levels of isoxicam, Mean (time 48.0 h postdose): 22.6 µg/mL
Plasma levels of isoxicam, Mean (time 72.0 h postdose): 15.0 µg/mL
Plasma levels of isoxicam, Mean (time 96.0 h postdose): 8.41 µg/mL
Plasma levels of isoxicam, Mean (time 153.5 h postdose): 2.46 µg/mL
Plasma levels of isoxicam, Mean (time 192.0 h postdose (two dogs actually 193 hours)): 1.46 µg/mL
Plasma levels of isoxicam, Mean (time 240.0 h postdose): 0.82 µg/mL
mean peak plasma concentration (reached at two hours postdose, 100 mg (free acid equivalents) per oral dose, dogs): 53.9±4.0 Ilg/ml
peak time (the final (fourth) animal, 100 mg oral): eight
peak time (three animals of four, 100 mg oral): two
